According to US4177350A, “Imidazole ethyl oxyalkoxy derivatives and thio analogues thereof” (Siegfried Aktiengesellschaft, priority 1977, dated 1979):

Tests used:
[1] = system: Staphylococcus aureus haemolyticus; assay: minimum inhibitory concentration, gradient plate method, Staphylococcus aureus haemolyticus; assay type: cell-based; details: 72 h, gradient 0-100 μg/ml, 10% aqueous dimethyl formamide, evaluated three days after inoculation, read-out: Minimum Inhibitory Concentration, Bacteria, St
Text: (§1) Test evaluation was made three days after inoculation.

[2] = system: Streptococcus faecalis; assay: minimum inhibitory concentration, gradient plate method, Streptococcus faecalis; assay type: cell-based; parameters: key to partial resistancy, Bacteria, Str: partial resistancy observed; details: for MIC: Enterococcus faecalis, 72 h, gradient 0-100 μg/ml, 10% aqueous dimethyl formamide, evaluated three days after inoculation, read-out: Minimum Inhibitory Concentration, Bacteria, Str
Text: as §1

[3] = system: Trichophyton mentagrophytes; assay: minimum inhibitory concentration, gradient plate method, Trichophyton mentagrophytes; assay type: cell-based; details: 72 h, gradient 0-100 μg/ml, 10% aqueous dimethyl formamide, evaluated three days after inoculation, read-out: Minimum Inhibitory Concentration, Fungi, Tri
Text: as §1

[4] = system: Aspergillus niger; assay: minimum inhibitory concentration, gradient plate method, Aspergillus niger; assay type: cell-based; details: 72 h, gradient 0-100 μg/ml, 10% aqueous dimethyl formamide, evaluated three days after inoculation, read-out: Minimum Inhibitory Concentration, Fungi, Asp
Text: as §1

[5] = oral toxicity LD50 per os, mice; details: mouse, in vivo
Text: (§2) The results of these tests are summarized in the following Table I together with the oral toxicity values (LD50 per os; mice, values in mg per kg of body weight) determined in the conventional manner.

[6] = system: mice; details: oral, value as reported by Thienpont et al, Arzneimittelforschung 1975, 25, 224; cited from earlier work
[7] = in vivo; details: mouse, po
Text: as §2

Row | Compound | MIC [1] [mg/L] | MIC [2] [mg/L] | MIC [3] [mg/L] | MIC [4] [mg/L] | LD50 [5] [mg/kg] | Toxicity LD50 per os [6] [mg/kg] | partial resistancy, Bacteria, Str [2] | LD50 [7] [mg/kg]
1 | Clc1ccc(SCCCOC(Cn2ccnc2)c2ccc(Cl)cc2Cl)cc1.O=[N+]([O-])O (stereo not drawn) [Example 31, 1-{β-[3-(p-chlorophenylthio)-propoxy]-2,4-dichlorophenethyl}-imidazole nitrate] | < 10 | < 10 | < 10 | < 10 | 4300 |  |  | 
2 | Clc1ccc(COC(Cn2ccnc2)c2ccc(Cl)cc2Cl)cc1 (stereo not drawn) [ECONAZOLE, reference compound] | < 10 | < 10 | < 10 | < 10 |  | 462.7 |  | 
3 | Clc1ccc(OCCCCOC(Cn2ccnc2)c2ccc(Cl)cc2Cl)cc1.O=[N+]([O-])O (stereo not drawn) [Example 35, 1-{β-[4-(p-chlorophenoxy)-butoxy]-2,4-dichlorophenethyl}-imidazole nitrate] | 10 |  | < 10 | < 10 | > 4000 |  | r | 
4 | Clc1ccc(OCCOCCOC(Cn2ccnc2)c2ccc(Cl)cc2Cl)cc1 (stereo not drawn) [Example 17, 1-{β-[2-(p-chlorophenoxyethoxy)-ethoxy-2,4-dichlorophenethyl]}-imidazole nitrate] | < 10 | 10 | < 10 | 10 |  |  |  | 2500
5 | COc1ccc(OCOC(Cn2ccnc2)c2ccc(Cl)cc2Cl)cc1 (stereo not drawn) [Example 7, 1-β-(4-methoxyphenoxymethoxy-2,4-dichlorophenethyl)-imidazole nitrate] | 10 | 30 | < 10 | < 10 |  |  |  | 2600
6 | Clc1ccc(C(Cn2ccnc2)OCSc2ccc(Br)cc2)c(Cl)c1 (stereo not drawn) [Example 12, 1-β-(4-bromophenylthiomethoxy-2,4-dichlorophenethyl)-imidazole nitrate] | < 10 | 10 | < 10 | < 10 |  |  |  | 12500
